Values after ≈ are worked out from the molar mass of the structure shown.
Test: Water solubility, HPLC with external standard
Format: physicochemical

solubility: 1110 µg/mL (≈ 4.56 mM)
Compound: COc1ccc2cccc(CCNC(C)=O)c2c1 [Agomelatine, N-[2-(7-methoxy-1-naphthyl)ethyl]-acetamide]

From patent US8524949B2, “Agomelatine hydrohalide complex and preparation method thereof” (Les Laboratories Servier, priority 2009, dated 2013)
